Measurements: article PMC4421842 (Nature Communications, 2015)
≈ marks a conversion by molar mass, not a printed value. Where “and” joins values, the source holds several entries; their conditions need not be identical. Equal entries are not always repeated. Entries after “also recorded” stand apart in the source; their conditions may differ. Where two headings read alike, the source gives them in different places.

How the values were obtained:
MRSA clinical isolates = assay: microbe, parasite or virus in culture; format: cell-based, S. aureus; settings: for MIC: Staphylococcus aureus, MRSA
Summary of the method: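 Broth microdilution per CLSI guidelines in Mueller Hinton broth, run in triplicate against clinical MRSA isolates.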

E. coli = assay: microbe, parasite or virus in culture; format: cell-based; settings: Escherichia coli, ATCC25922, E. coli ATCC 25922; gyrA none, parC none
Excerpt: (§1) MRSA and P. aeruginosa isolates were from Cubist Pharmaceuticals (Lexington, MA). VRE isolates were from a previously published collection. E. coli strains were obtained either from ATCC or Professor Cari Vanderpool (UIUC). A. baumannii isolates were obtained from Dr John Quale[51].
(§2) Mueller Hinton (MH) broth was used.

VRE clinical isolates = assay: MIC, VRE clinical isolates panel (summary by GyrA mutation); format: cell-based, Enterococcus; settings: for MIC: Enterococcus, VRE
Excerpt: as §1, §2

[1] = tested on: WT S. aureus (ATCC 29213, WT); assay: microbe, parasite or virus in culture; format: cell-based; settings: WT GyrA and WT ParC, three independent replicates
[2] = tested on: resistant strains of ATCC 29213; assay: microbe, parasite or virus in culture; format: cell-based, S. aureus; settings: Staphylococcus aureus
physchem = settings: pH 7.4
Description: Three independent replicates of each compound were performed.

S83R E. coli DNA gyrase = molecular target: T1, S83R E. coli DNA gyrase (Escherichia coli, UniProt P0AES4+P0AES6, S83R); format: biochemical; settings: DNA cleavage assay
T1 construct: His tag (pTRCHisA vector; purified on Ni-NTA); made in house; host or cells: E. coli One Shot BL21 Star (DE3)

P. aeruginosa = assay: MIC, microdilution broth, P. aeruginosa; format: cell-based
Excerpt: as §1, §2

A. baumannii = assay: MIC, microdilution broth, A. baumannii; format: cell-based
Excerpt: as §1, §2

[3] = Tolerability in mice (maximal tolerated dose); format: in vivo
Description: (§3) The animal studies (PK, in-vivo toxicity and in-vivo efficacy) were carried out in strict accordance with the recommendations in the Guide for the Care and Use of Laboratory Animals of the National Institutes of Health. […] In these studies, 10- to 12-week-old female C57BL/6 mice purchased from Charles River were used. DNM, DNM-2 and DNM-3 were formulated as slurries at 8.3 mg ml^−1 in 25% Cremophor RH40/water (v/v). Before beginning the pharmacokinetic assessment, mice were first tested for their ability to tolerate the DNM, DNM-2 and DNM-3 at 50 mg kg^−1 (p.o.). […] At specified time points, mice were killed and blood was collected, centrifuged and the serum was frozen at −80 °C until analysis. The proteins in a 50-μl aliquot of serum were precipitated by the addition of 50 μl of acetonitrile and the sample was centrifuged to remove the proteins. Serum concentrations of DNM, DNM-2 and DNM-3 were determined by HPLC. PK parameters were determined using GraphPad Prism Version 5.00 for Windows.

S. aureus (ATCC 29213) = assay: Resistant mutant generation (resistance frequency); format: cell-based; settings: development of DNM resistance in high-level CIP-resistant strains
WT E. coli DNA gyrase = molecular target: T2, WT E. coli DNA gyrase (Escherichia coli, UniProt P0AES4+P0AES6); format: biochemical; settings: DNA cleavage assay
T2 construct: His tag (pTRCHisA vector; purified on Ni-NTA); made in house; host or cells: E. coli One Shot BL21 Star (DE3)

E. faecium = assay: microbe, parasite or virus in culture; format: cell-based; settings: Enterococcus faecium, E. faecium
E. faecalis = assay: microbe, parasite or virus in culture; format: cell-based; settings: E. faecalis
Ent. Spp. = assay: MIC, microdilution broth, Ent. Spp. VRE clinical isolate; format: cell-based; settings: Enterococcus, C28036, gyrA Ser83Ile, parC Ser80Ile
Excerpt: as §1, §2

[4] = Pharmacokinetic assessment; format: in vivo, C57BL/6 mice; settings: for Cmax: female, C57BL/6, mouse
Description: as §3

Compound Cc1cc(=O)n(C)c2c3c4c(cc12)c(C)cc(=O)n4CO3 [DNM, deoxynybomycin] has an MIC (MRSA clinical isolates; strain SAU.1118, read-out: MIC) of 1 µg/mL (≈ 3.54 µM), an MIC (MRSA clinical isolates; strain SAU.2996, read-out: MIC) of 0.25 µg/mL (≈ 0.886 µM) and an MIC (MRSA clinical isolates; strain SAU.3017, read-out: MIC) of 1 µg/mL (≈ 3.54 µM). The MIC (MRSA clinical isolates; strain SAU.3021, read-out: MIC) was 0.031 µg/mL (≈ 0.11 µM), the MIC (MRSA clinical isolates; strain SAU.3025, read-out: MIC) was 0.031 µg/mL (≈ 0.11 µM) and the MIC (MRSA clinical isolates; strain SAU.419, read-out: MIC) was 0.125 µg/mL (≈ 0.443 µM). The MIC (MRSA clinical isolates; strain SAU.42, read-out: MIC) was 1 µg/mL (≈ 3.54 µM), the MIC (MRSA clinical isolates; strain SAU.446, read-out: MIC) was 0.25 µg/mL (≈ 0.886 µM) and the MIC (MRSA clinical isolates; strain SAU.447) was 0.063 µg/mL (≈ 0.223 µM). The MIC (MRSA clinical isolates; strain SAU.492, gyrA Ser84Leu, parC Ser80Tyr) was 0.063 µg/mL (≈ 0.223 µM), the MIC (MRSA clinical isolates; strain SAU.493, gyrA Ser84Leu, parC Ser80Phe) was 0.063 µg/mL (≈ 0.223 µM) and the MIC (MRSA clinical isolates; strain SAU.494, gyrA Ser84Leu, parC Ser80Phe) was 0.063 µg/mL (≈ 0.223 µM). The MIC (MRSA clinical isolates; strain SAU.495, gyrA Ser84Leu, parC Ser80Phe) was 0.063 µg/mL (≈ 0.223 µM), the MIC (MRSA clinical isolates; strain SAU.496, gyrA Ser84Leu, parC Ser80Phe) was 0.063 µg/mL (≈ 0.223 µM) and the MIC (MRSA clinical isolates; strain SAU.555, read-out: MIC) was 0.125 µg/mL (≈ 0.443 µM). For the same compound, the MIC (MRSA clinical isolates; strain SAU.708, gyrA Ser84Leu, parC Ser80Phe Glu84Lys) was 0.063 µg/mL (≈ 0.223 µM), the MIC (MRSA clinical isolates; strain SAU.709, gyrA Ser84Leu, parC Ser80Tyr Glu84Gly) was 0.063 µg/mL (≈ 0.223 µM) and the MIC (MRSA clinical isolates; strain SAU.846, read-out: MIC) was 0.031 µg/mL (≈ 0.11 µM). The “Sensitivity of MRSA clinical isolates” value (MRSA clinical isolates; panel of MRSA clinical isolates (n=21)) was “sensitive”, the MIC (E. coli) was over 4 µg/mL and the MIC (VRE clinical isolates; VRE harbouring the S83I mutation in GyrA) was 0.125 to 1 µg/mL (≈ 0.443 to 3.54 µM). For the same compound, the MIC (VRE clinical isolates; VRE with the S83R mutation in GyrA) was at least 1 µg/mL, the “Sensitivity of VRE clinical isolates” value (VRE clinical isolates; panel of VRE clinical isolates (n=22)) was “sensitive” and the “MIC against S. aureus 29213” value ([1]; ATCC 29213) was “modest activity and 2 μg ml^−1”. The MIC ([1]; Staphylococcus aureus, ATCC29213, ATCC 29213, read-out: MIC against S. aureus 29213) was over 1 µg/mL, the MIC ([2]; ATCC29213, high-level CIP-resistant strains, second step, S84L mutation in GyrA) was 0.03 to 0.06 µg/mL (≈ 0.106 to 0.213 µM) and the MIC ([2]; ATCC29213, low-level CIP-resistant strains, first step, WT gyrA, mutation in ParC (for example E84K or S80F)) was over 1 µg/mL. For the same compound, the MIC ([2]; ATCC29213, resistance cycle strain, WT gyrA, WT parC (Fig. 4a)) was over 1 µg/mL, the solubility at 1 h (physchem) was 9 µM (≈ 2.54 µg/mL) and the “inhibition of S83R DNA gyrase” value (S83R E. coli DNA gyrase) was “buildup of OC DNA similar to that seen with S83L DNA gyrase only at a slightly higher concentration or longer time points”. For the same compound, the “activity against wild-type (WT) or FQR P. aeruginosa” value (P. aeruginosa) was “no detectable activity”, the MIC (P. aeruginosa; PA1586 (CIP resistant clinical isolate)) was over 4 µg/mL and the MIC (P. aeruginosa; Pseudomonas aeruginosa, P. aeruginosa PAO1, read-out: MIC) was over 4 µg/mL. For the same compound, the MIC (P. aeruginosa; Pseudomonas aeruginosa, read-out: MIC) was over 4 µg/mL, the “activity against wild-type (WT) or FQR Acinetobacter baumannii” value (A. baumannii) was “no detectable activity” and the MIC (A. baumannii; A. baumannii KB304, gyrA S83L) was over 4 µg/mL. For the same compound, the MIC (A. baumannii; Acinetobacter baumannii) was over 4 µg/mL, the MIC (A. baumannii; Acinetobacter baumannii, ATCC19606, A. baumannii ATCC 19606, read-out: MIC) was over 4 µg/mL and the tolerability ([3]; increasing doses, highest dose evaluated 50 mg kg^−1 by oral gavage) was “well tolerated up to the highest dose evaluated”. The maximal tolerated dose ([3]; oral gavage) was over 50 mg/kg, the resistance frequencies (S. aureus (ATCC 29213)) was 1 × 10^−10 to 7 × 10^−10 and the “inhibition of WT DNA gyrase (increase in L or OC DNA)” value (WT E. coli DNA gyrase) was “poor inhibitors of WT DNA gyrase”. For the same compound, the MIC (E. faecium; C21190, gyrA Ser83 Arg, parC Ser80Ile) was over 1 µg/mL, the MIC (E. faecium; C27282, gyrA Ser83 Arg, parC Ser80Arg) was over 1 µg/mL and the MIC (E. faecium; S34, gyrA Ser83Ile, parC Ser80 Arg) was 1 µg/mL (≈ 3.54 µM). The MIC (E. faecium; S226, gyrA Ser83Ile, parC Ser80Ile) was 0.25 µg/mL (≈ 0.886 µM), the MIC (E. faecium; S235, gyrA Ser83Ile, parC Ser80Ile) was 0.125 µg/mL (≈ 0.443 µM) and the MIC (E. faecium; S344, gyrA Ser83Ile, parC Ser80Ile) was 0.25 µg/mL (≈ 0.886 µM). The MIC (E. faecium; S557, gyrA Ser83Ile, parC Ser80Ile) was 0.25 µg/mL (≈ 0.886 µM), the MIC (E. faecium; U63, gyrA Ser83 Arg, parC Ser80Ile) was 1 µg/mL (≈ 3.54 µM) and the MIC (E. faecium; U275, gyrA Ser83Cys Glu87Gly, parC Ser80Ile) was 1 µg/mL (≈ 3.54 µM). It also gave an MIC (E. faecium; U464, gyrA Ser83 Arg, parC Ser80Ile) of 1 µg/mL (≈ 3.54 µM), an MIC (E. faecium; U503, gyrA Ser83 Arg, parC Ser80Ile) of over 1 µg/mL and an MIC (E. faecium; U563, gyrA Ser83 Arg, parC Ser80Ile) of over 1 µg/mL. The MIC (E. faecalis; ATCC 29212, gyrA WT, parC WT) was over 1 µg/mL, the MIC (E. faecalis; Enterococcus faecalis, ATCC19433, ATCC 19433, gyrA WT, parC WT) was over 1 µg/mL and the MIC (E. faecalis; Enterococcus faecalis, ATCC29212, ATCC 29212, gyrA WT, parC WT) was over 1 µg/mL. The MIC (E. faecalis; Enterococcus faecalis, S206, gyrA Ser83 Arg, parC Ser80Ile) was 1 µg/mL (≈ 3.54 µM), the MIC (Ent. Spp.) was 0.25 µg/mL (≈ 0.886 µM) and the Cmax ([4]; C57/BL6 mice, 50 mg kg-1 oral gavage, serum, read-out: Cmax) was under 60 ng/mL. The Cmax ([4]; mice, 50 mg kg^−1 oral dose, serum, read-out: Cmax (peak serum concentration)) was under 200 nM, the “oral bioavailability / serum exposure” value ([4]; mice, 50 mg kg^−1 oral dose) was “very low serum exposure; also recorded: not absorbed to any appreciable degree” and the “Cmax (peak serum concentration)” value ([4]; mice, 50 mg kg^−1 oral dose, serum) was under 0.060 µg/mL.
